Source: ChEMBL document CHEMBL4651402, “Screening of ~5500 FDA-approved drugs and clinical candidates for anti-SARS-CoV-2 activity” (2021)
pIC50: −log10 of the molar value.

Tested on: SARS-CoV-2
Experiment: microbe, parasite or virus in culture
Settings: Severe acute respiratory syndrome coronavirus 2, Vero C1008, 48 h; for IC50: read-out: pIC50 (converted)

## O=C(O)c1cc(NC(=O)[C@@H](Cc2ccccc2F)NC(=O)c2cc3[nH]cnc3cc2C(=O)NCC2CCCCCC2)cc(C(=O)O)c1
  pIC50: < 4.70
  IC50: > 20 µM

## CC(C)CC1C(=O)N2CCCC2C2(O)OC(NC(=O)C3CC4c5cccc6[nH]cc(c56)CC4N(C)C3)(C(C)C)C(=O)N12 (centres undefined)
  pIC50: < 4.70
  IC50: > 20 µM

## Cc1ccc(S(=O)(=O)NC(=O)NC2C3CCC(C)(C2O)C3(C)C)cc1 (centres undefined)
  pIC50: < 4.70
  IC50: > 20 µM

## CCOC(=O)c1ncc2[nH]c3cccc(OCc4ccccc4)c3c2c1COC
  pIC50: < 4.70
  IC50: > 20 µM

## Cc1cn2nc([C@H]3CCCCN3C(=O)c3cc(Cl)ccc3NS(C)(=O)=O)cc2nc1N1CC[C@H](N)C1
  pIC50: < 4.70
  IC50: > 20 µM

## O=[N+]([O-])/C(Br)=C\c1ccc(Br)o1
  pIC50: < 4.70
  IC50: > 20 µM

## CC1CC2(C)C3CCC4(C)C(O)CCC4C3CC[C@H]2CC1=O (some centres undefined)
  pIC50: < 4.70
  IC50: > 20 µM

## CC1CC2=CC(=O)CCC2C2CCC3(C)C(CCC3(C)O)C12 (centres undefined)
  pIC50: < 4.70
  IC50: > 20 µM

## CN(C)CCOc1ccc(/C(=C(\CCCl)c2ccccc2)c2ccccc2)cc1
  pIC50: < 4.70
  IC50: > 20 µM

## CC12C=CC(=O)C=C1CCC1C2C(O)CC2(C)C1CCC2(O)C(=O)COC(=O)CCCc1ccc(N(CCCl)CCCl)cc1 (centres undefined)
  pIC50: < 4.70
  IC50: > 20 µM

## CC[N@@+]1(C)[C@@H]2CC[C@H]1C[C@@H](OC(=O)[C@]1(c3ccccc3)CC[C@H](C(=O)O[C@H]3C[C@H]4CC[C@@H](C3)[N@+]4(C)CC)c3ccccc31)C2
  pIC50: < 4.70
  IC50: > 20 µM

## NCCC(O)C(=O)N[C@@H]1C[C@H](N)[C@@H](OC2O[C@H](CN)[C@@H](O)[C@H](O)[C@H]2N)[C@H](OC2O[C@H](CO)C(O)[C@H]2O)[C@H]1O (some centres undefined)
  pIC50: < 4.70
  IC50: > 20 µM

## [2H]C([2H])([2H])OCCCN1CCC(NC(=O)c2cc(Cl)c(N)c3c2OCC3)CC1
  pIC50: < 4.70
  IC50: > 20 µM

## C=C1[C@@H]2CC[C@H]3[C@]4(C)C[C@H](O[C@H]5O[C@H](CO)[C@@H](OS(=O)(=O)O)[C@H](OS(=O)(=O)O)[C@H]5OC(=O)CC(C)C)C[C@@H](C(=O)O)[C@H]4CC[C@]3(C2)[C@H]1O
  pIC50: < 4.70
  IC50: > 20 µM

## C[C@@H]1CCC2[C@H](C)C3CC[C@@]4(O)[C@@H]5CC(=O)[C@H]6CC(=O)CC[C@]6(C)C5C[C@H]4[C@@H]3CN2C1 (some centres undefined)
  pIC50: < 4.70
  IC50: > 20 µM

## CCCCc1ncc(C=C(Cc2cccs2)C(=O)O)n1Cc1ccc(C(=O)O)cc1
  pIC50: < 4.70
  IC50: > 20 µM

## CN1CC[C@]23c4c5ccc(O)c4O[C@H]2C(=O)C=C[C@@]3(O)C1C5
  pIC50: < 4.70
  IC50: > 20 µM

## CC(C)CCCC(C)C1CCC2C3CC[C@H]4CC(O)CCC4(C)C3CCC12C (some centres undefined)
  pIC50: < 4.70
  IC50: > 20 µM

## CCN1C[C@]2(COC)CC[C@H](OC)[C@]34[C@@H]5C[C@H]6[C@H](OC)[C@@H]5[C@@]5(C[C@@H]6OC)OCO[C@@]5([C@H]13)[C@@H](O)[C@H]24
  pIC50: < 4.70
  IC50: > 20 µM

## Cc1ccc([C@H]2O[C@H](CO)[C@@H](O)[C@H](O)[C@H]2O)cc1Cc1ccc(-c2ccc(F)cc2)s1
  pIC50: < 4.70
  IC50: > 20 µM

## CCCCN1C[C@@H](O)[C@@H](O)[C@H](O)[C@H]1CO
  pIC50: < 4.70
  IC50: > 20 µM

## CO[C@H]1C[C@@H]2CC[C@@H](C)[C@@](O)(O2)C(=O)C(=O)N2CCCC[C@H]2C(=O)O[C@H]([C@H](C)C[C@@H]2CC[C@H](n3cnnn3)[C@H](OC)C2)CC(=O)[C@H](C)/C=C(/C)[C@@H](O)[C@@H](OC)C(=O)[C@H](C)C[C@H](C)\C=C/C=C\C=C/1C
  pIC50: < 4.70
  IC50: > 20 µM

## CC(=O)N[C@H]1C[C@H]2CC[C@@H](C1)N2Cc1ccc(Oc2nc3ncccc3s2)cc1
  pIC50: < 4.70
  IC50: > 20 µM

## CC(C)OC(=O)[C@@H](C)NP(=O)(OC[C@H]1O[C@@H](n2ccc(=O)[nH]c2=O)[C@](C)(O)[C@@H]1O)Oc1ccccc1 (some centres undefined)
  pIC50: < 4.70
  IC50: > 20 µM

## C/C(=N/NC(=N)N)c1cc(NC(=O)CCCCCCCCC(=O)Nc2cc(/C(C)=N\NC(=N)N)cc(/C(C)=N/NC(=N)N)c2)cc(/C(C)=N/NC(=N)N)c1
  pIC50: < 4.70
  IC50: > 20 µM

## CCC1(C2OC(C3OC(O)(CO)C(C)CC3C)CC2C)CCC(C2(C)CCC3(CC(O)C(C)C(C(C)C(OC)C(C)C(=O)O)O3)O2)O1 (centres undefined)
  pIC50: < 5.00
  IC50: > 10 µM

## N#Cc1cccc([C@H]2C=C(C(F)(F)F)NC3=C2C(=O)CCC3)c1
  pIC50: < 4.70
  IC50: > 20 µM

## O/N=C1/CCCC/C1=N\O
  pIC50: < 4.70
  IC50: > 20 µM

## CC1(C)CCC2(C)CCC3(C)C(=CCC4C5(C)CCC(O)C(C)(C)[C@@H]5CCC43C)C2C1 (some centres undefined)
  pIC50: < 4.70
  IC50: > 20 µM

## Cc1cn(Cc2ccc(Cl)cc2Cl)c2c(/C=C/C(=O)NS(=O)(=O)c3cc(Cl)c(Cl)s3)cc(F)cc12
  pIC50: < 4.70
  IC50: > 20 µM

## CCOc1ccccc1O[C@@H](c1ccccc1)[C@H]1CNCCO1
  pIC50: < 4.70
  IC50: > 20 µM

## CC1OC(n2cc(F)c(=O)[nH]c2=O)C(O)C1O (centres undefined)
  pIC50: < 4.70
  IC50: > 20 µM

## CC(O)(C(=O)Nc1ccc(C(=O)c2ccccc2)cc1)C(F)(F)F (centres undefined)
  pIC50: < 4.70
  IC50: > 20 µM

## CC12CCC3C(CCC4CC(=O)CCC43C)C1CCC2=O (centres undefined)
  pIC50: < 4.70
  IC50: > 20 µM

## CC(C)(C)C(=O)Oc1ccc(S(=O)(=O)Nc2ccccc2C(=O)NCC(=O)O)cc1
  pIC50: < 4.70
  IC50: > 20 µM

## N[C@@H](Cc1ccc(N(CCCl)CCCl)cc1)C(=O)O
  pIC50: < 4.70
  IC50: > 20 µM

## CCN1C(=S)N(c2ccc(N3CCN(c4ccc(O)cc4)CC3)cc2)C(=O)C1(C)C
  pIC50: < 4.70
  IC50: > 20 µM
